Assay results published in PubChem BioAssay (NCI).
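In this assay, cells in 96-well plates receive the compound at five concentrations for 48 hours. Endpoints are linearly interpolated between the surrounding concentrations. At the TGI there is no net growth.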

Tests used:
Assay in all cases: DTP human tumour cell line panel, 48 h
HS 578T breast = system: HS 578T breast
SK-OV-3 ovarian = system: SK-OV-3 ovarian
DU-145 prostate = system: DU-145 prostate
A549 NSCLC = system: A549 NSCLC
PC-3 prostate = system: PC-3 prostate
KM12 colon = system: KM12 colon
NCI-H23 lung = system: NCI-H23 lung
OVCAR-4 ovarian = system: OVCAR-4 ovarian
OVCAR-3 ovarian = system: OVCAR-3 ovarian
OVCAR-8 ovarian = system: OVCAR-8 ovarian

Structure (SMILES) | TGI (HS 578T breast) [µM] | TGI (SK-OV-3 ovarian) [µM] | TGI (DU-145 prostate) [µM] | TGI (A549 NSCLC) [µM] | TGI (PC-3 prostate) [µM] | TGI (KM12 colon) [µM] | TGI (NCI-H23 lung) [µM] | TGI (OVCAR-4 ovarian) [µM] | TGI (OVCAR-3 ovarian) [µM] | TGI (OVCAR-8 ovarian) [µM]
Cn1c(=O)c2c(nc3n(CC(O)CCl)c(=O)ccn23)n(C)c1=O (stereo not given) | > 100 | > 100 | > 100 | > 100 | > 100 | > 100 | > 100 | > 100 | > 100 | > 100
C=CCSC1=N/C(=C\c2ccc(Cl)cc2)C(=O)N1CC=C | > 100 | > 100 | > 100 | > 100 | 54.2 | 97.7 | > 100 | 94.7 | > 100 | > 100
COc1ccc(N2C(=O)C3c4[nH]c5ccc(OCc6ccccc6)cc5c4C4CCC(c5ccccc5)CC4C3C2=O)cc1 (stereo not given) | 25.8 | 22.6 | > 100 | > 39 | 96.5 | > 85.7 | 32.4 | 3.04 | > 89 | 47.5
O=C(O)CCc1nc2c(n1-c1ccccc1)C(=O)c1ccccc1C2=O | > 100 | > 100 | > 100 | > 100 | > 100 | > 100 | > 100 | > 100 | > 100 | > 100
COC(=O)Cc1cc(O)c2c(c1O)C(=O)c1ccccc1C2=O | > 84.5 | > 100 | > 100 | > 100 | > 100 | > 100 | > 100 | > 100 | > 100 | > 100
COc1cccc(N2C(=O)CSC2c2cccc(Oc3ccccc3)c2)c1 (stereo not given) | 41.4 | > 100 | > 100 | > 100 | > 100 | > 100 | > 100 | 87.5 | 92.9 | 50.7
O=c1[nH]c2nc3ccccc3c(=O)n2/c1=C/c1ccc(Cl)cc1 | 65.2 | > 100 | > 100 | > 100 | > 100 | > 100 | > 100 | > 100 | > 100 | 58.6
CCOC(=O)c1ccc(-n2[nH]nc(C(N)=O)c2=O)cc1 | > 100 | > 100 | > 100 | > 100 | > 100 | > 100 | > 100 | > 100 | > 100 | > 100
CCC/C(Cl)=N\OC(=O)Nc1ccc(F)cc1 | > 86.4 | > 59.7 | 31 | > 100 | 31.2 | 42.6 | 41.2 | 30.8 | 9.76 | > 60.9
c1ccc(/C(=N/Nc2nc3ccccc3s2)C2CCCCC2)nc1 | 50 | 18.7 | 34.2 | 76.1 | 24.3 | 29.6 | 21.8 | 22.3 | 7.6 | 14.3
Nc1n(CC(=O)c2ccccc2)nc2sc(-c3ccccc3)n[n+]12 | > 100 | 92 | 87.7 | 90.6 | 78.8 | 39.3 | 59.5 | > 100 | 38.9 | 38.8
O=C(Nc1ccc(N2C(=O)CSC2c2ccccc2O)cc1)c1ccc(N2C(=O)CSC2c2ccccc2O)cc1 (stereo not given) | > 100 | 62.3 | > 100 | > 100 | > 100 | > 100 | > 100 | > 100 | > 100 | > 100
CC(=O)NC1C(OCc2ccccc2)OC(CO)C(O)C1OCC(=O)N1CCCC1C(=O)N[C@@H](CCC(=O)NCCCCNc1c2ccccc2nc2cccc([N+](=O)[O-])c12)C(N)=O (stereo not given in full) | 74.8 | > 100 | > 100 | 37.8 | 60.3 | > 100 | 40.8 | > 100 | 61.9 | > 100
Cc1ccc(C(=N)c2ccccc2Cc2cccc3ccccc23)c2ccccc12 | > 100 | > 100 | > 100 | > 100 | > 100 | > 100 | > 100 | > 100 | > 100 | > 100
Cn1c(=O)c2[nH]c(N/N=N/c3nncs3)nc2n(C)c1=O | > 100 | > 100 | > 100 | > 100 | > 100 | > 100 | > 100 | > 100 | > 100 | > 100
C[C@H](c1ccccc1)N1C(=O)[C@@H](O)[C@H]1[C@H](CO)OCc1ccccc1 | > 100 | > 100 | > 100 | > 100 | > 100 | > 100 | > 100 | > 100 | > 100 | > 100
COC(=O)C1(NC(=O)C(CC(=O)OCc2ccccc2)NC(=O)OCc2ccccc2)CCCCCC1 (stereo not given) | > 100 | 94.6 | > 100 | > 100 | > 100 | > 100 | > 100 | 43.8 | > 100 | 90.5
COc1ccc([C@H]2[C@H]3COC(=O)[C@H]3C(C#N)=C3Sc4ccccc4N32)cc1 | > 100 | > 100 | 69.7 | > 100 | > 100 | > 91.2 | 78.8 | > 100 | 68 | > 100
CC(=O)c1c(-c2cccc3ccccc23)c(C#N)c(=S)n(C2OC(CO)C(O)C(O)C2O)c1C (stereo not given) | > 100 | > 100 | > 100 | > 100 | > 100 | > 100 | > 100 | > 100 | > 100 | > 100
OC1[C@@H]2[C@@H](O)CCCN2C[C@@H](O)[C@H]1O (stereo not given in full) | > 100 | > 100 | > 100 | > 100 | > 100 | > 100 | > 100 | > 100 | > 100 | > 100
CC1CC[C@@]2(OC1)OC1C[C@H]3[C@@H]4CC=C5CC(OC6OC(CO)C(OC7OC(CO)C(O)C(OC8OCC(O)C(O)C8O)C7OC7OC(CO)C(OC8OC(C)C(OC9OC(C)C(O)C(O)C9O)C(O)C8O)C(O)C7O)C(O)C6O)CCC5(C)[C@H]4CCC3(C)C1[C@@H]2C (stereo not given in full) | 17.8 | 17.3 | 15.9 | 14.5 | 11.7 | 17.7 | 16.7 | 12.8 | 20.7 | 19.4
